Laboratory results reported in US20210116454A1, “METHODS FOR TREATING A HEMATOLOGICAL CANCER AND THE USE OF COMPANION BIOMARKERS FOR 2-(2,6-DIOXOPIPERIDIN-3-YL)-4-((2-FLUORO-4-((3-MORPHOLINOAZETIDIN-1-YL)METHYL)BENZYL)AMINO)ISOINDOLINE-1,3-DIONE” (CELGENE CORPORATION, priority 2019, published 2021).
Read-outs that look alike come from different tables or passages of the source.

How the values were obtained:
Assay in all cases: 5-day viable cell number and apoptosis (7-AAD exclusion/Annexin V flow cytometry)
Assay type in all cases: cell-based
Pfeiffer = system: Pfeiffer
Description: (§1) The DLBCL panel includes seven cell lines classified as activated B-cell (ABC) subtype, thirteen cell lines classified as the germinal center B-cell (GCB) subtype, and three cell lines classified as primary mediastinal B-cell lymphoma (PMBL). […] The translocation of MYC, BCL6, or BCL2 to an IG locus usually leads to high levels of mRNA and protein due to the active transcription driven by a constitutively active IG promoter. […] Expressions of CRBN protein and known substrates, Ikaros, Aiolos, and ZFP91 were also evaluated (FIG. 1, panels B and C).
(§2) The panel of cell lines were treated with increasing doses of compounds for five days, at which time the number of viable cells was measured and the amount of apoptosis was determined by 7-AAD exclusion and Annexin V staining using flow cytometry.

SU-DHL-4 = system: SU-DHL-4
Description: as §1, §2

RIVA = system: RIVA
Description: as §1, §2

KARPAS-1106P = system: KARPAS-1106P
Description: as §1, §2

RC-K8 = system: RC-K8
Description: as §1, §2

OCI-LY-19 = OCI-LY-19 cells, 5 days
Description: as §1, §2

OCI-LY-3 = OCI-LY-3 cells, 5 days
Description: as §1, §2

HT = system: HT
Description: as §1, §2

Toledo = Toledo cells, 5 days
Description: as §1, §2

SU-DHL-8 = system: SU-DHL-8
Description: as §1, §2

TMD8 = TMD8 cells, 5 days
Description: as §1, §2

OCI-LY-7 = system: OCI-LY-7
Description: as §1, §2

WSU-DLCL2 = system: WSU-DLCL2
Description: as §1, §2

OCI-Ly10 = system: OCI-Ly10
Description: as §1, §2

U2932 = system: U2932
Description: as §1, §2

[1] = Homo sapiens, 120 h, Pfeiffer cells, 5 days
[2] = Homo sapiens, 120 h, SU-DHL-4 cells, 5 days
[3] = Homo sapiens, 120 h, KARPAS-1106P cells, 5 days
[4] = Homo sapiens, RCK8, 120 h, RC-K8 cells, 5 days
[5] = Homo sapiens, 120 h, HT cells, 5 days
[6] = Homo sapiens, 120 h, read-out: % Viable Cells IC50
[7] = Homo sapiens, 120 h, SU-DHL-8 cells, 5 days
[8] = Homo sapiens, OCI-Ly7, 120 h, OCI-LY-7 cells, 5 days
[9] = Homo sapiens, WSUDLCL2, 120 h, WSU-DLCL2 cells, 5 days
[10] = Homo sapiens, 120 h, OCI-Ly10 cells, 5 days
[11] = Homo sapiens, 120 h, U2932 cells, 5 days

## O=C1CC[C@H](N2C(=O)c3cccc(NCc4ccc(CN5CC(N6CCOCC6)C5)cc4F)c3C2=O)C(=O)N1 [Compound 1, (S)-2-(2,6-dioxopiperidin-3-yl)-4-((2-fluoro-4-((3-morpholinoazetidin-1-yl)methyl)benzyl)amino)isoindoline-1,3-dione]
Pfeiffer; [1]
  EC50: 300 nM
  Emax: 8.01%
Pfeiffer; Homo sapiens, Pfeiffer cells (Table 3)
  IC50: 855000 nM
Pfeiffer; Pfeiffer cells, 5 days
  % Viable Cells AUC: 912.3
  % Viable Cells Emax: 86.19%
  % Viable Cells Sensitivity: Limited
  Apoptosis AUC: 133.5
  Apoptosis Sensitivity: Limited
SU-DHL-4; [2]
  EC50: 452 nM
  Emax: 18.9%
SU-DHL-4; Homo sapiens, 120 h, SU-DHL-4 cells, 5 days, read-out: % Viable Cells IC50
  IC50: 500 nM
SU-DHL-4; Homo sapiens, SU-DHL-4 cells (Table 3), read-out: IC50
  IC50: 457000 nM
SU-DHL-4; SU-DHL-4 cells, 5 days
  % Viable Cells AUC: 457.4
  % Viable Cells Emax: 41.79%
  % Viable Cells Sensitivity: Intermediate (intermediate sensitivity with 15% to 55% cell viability)
  Apoptosis AUC: 155.2
  Apoptosis Sensitivity: Intermediate
RIVA; 120 h, RIVA cells, 5 days
  EC50: 19 nM
  Emax: 22.7%
RIVA; 120 h, RIVA cells, 5 days, read-out: % Viable Cells IC50
  IC50: 50 nM
RIVA; RIVA cells (Table 3), read-out: IC50
  IC50: 396000 nM
RIVA; RIVA cells, 5 days
  % Viable Cells AUC: 395.8
  % Viable Cells Emax: 36.99%
  % Viable Cells Sensitivity: Intermediate (intermediate sensitivity with 15% to 55% cell viability)
  Apoptosis AUC: 216.6
  Apoptosis Sensitivity: Intermediate
KARPAS-1106P; [3]
  EC50: 56.1 nM
  Emax: 59.8%
KARPAS-1106P; Homo sapiens, 120 h, KARPAS-1106P cells, 5 days, read-out: % Viable Cells IC50
  IC50: 25 nM
KARPAS-1106P; Homo sapiens, KARPAS-1106P cells (Table 3), read-out: IC50
  IC50: 111000 nM
KARPAS-1106P; KARPAS-1106P cells, 5 days
  % Viable Cells AUC: 110.9
  % Viable Cells Emax: 1.183%
  % Viable Cells Sensitivity: High (highly sensitive to Compound 1 with less than 6% viable cells remaining (Emax) after treatment)
  Apoptosis AUC: 597.7
  Apoptosis Sensitivity: High
RC-K8; [4]
  EC50: 230 nM
  Emax: 9.53%
RC-K8; Homo sapiens, RCK8, 120 h, RC-K8 cells, 5 days, read-out: % Viable Cells IC50
  IC50: 100 nM
RC-K8; Homo sapiens, RCK8, RC-K8 cells (Table 3), read-out: IC50
  IC50: 409000 nM
RC-K8; RC-K8 cells, 5 days
  % Viable Cells AUC: 409.1
  % Viable Cells Emax: 34.92%
  % Viable Cells Sensitivity: Intermediate (intermediate sensitivity with 15% to 55% cell viability)
  Apoptosis AUC: 81.59
  Apoptosis Sensitivity: Intermediate
OCI-LY-19; Homo sapiens, OCI-LY19, 120 h
  EC50: 80.9 nM
  Emax: 30.6%
OCI-LY-19; Homo sapiens, OCI-LY19, 120 h, read-out: % Viable Cells IC50
  IC50: 30 nM
OCI-LY-19
  % Viable Cells AUC: 283.3
  % Viable Cells Emax: 28.11%
  % Viable Cells Sensitivity: Intermediate (intermediate sensitivity with 15% to 55% cell viability)
  Apoptosis AUC: 293.5
  Apoptosis Sensitivity: Intermediate
OCI-LY-3; Homo sapiens, OCI-Ly3, 120 h
  EC50: 0.46 nM
  Emax: 0.753%
OCI-LY-3
  % Viable Cells AUC: 986.1
  % Viable Cells Emax: 84.33%
  % Viable Cells Sensitivity: Limited
  Apoptosis AUC: 7.009
  Apoptosis Sensitivity: Limited
HT; HT cells, 5 days
  % Viable Cells AUC: 434.8
  % Viable Cells Emax: 45.18%
  % Viable Cells Sensitivity: Intermediate (intermediate sensitivity with 15% to 55% cell viability)
  Apoptosis AUC: 158.2
  Apoptosis Sensitivity: Intermediate
HT; [5]
  EC50: 7.82 nM
  Emax: 16.6%
HT; Homo sapiens, 120 h, HT cells, 5 days, read-out: % Viable Cells IC50
  IC50: 470 nM
HT; Homo sapiens, HT cells (Table 3), read-out: IC50
  IC50: 435000 nM
Toledo; Homo sapiens, 120 h
  EC50: 500 nM
  Emax: 14%
Toledo; [6]
  IC50: 500 nM
Toledo
  % Viable Cells AUC: 507
  % Viable Cells Emax: 52.68%
  % Viable Cells Sensitivity: Intermediate (intermediate sensitivity with 15% to 55% cell viability)
  Apoptosis AUC: 114.8
  Apoptosis Sensitivity: Intermediate
SU-DHL-8; [7]
  EC50: 509 nM
  Emax: 70.5%
SU-DHL-8; Homo sapiens, 120 h, SU-DHL-8 cells, 5 days, read-out: % Viable Cells IC50
  IC50: 250 nM
SU-DHL-8; Homo sapiens, SU-DHL-8 cells (Table 3), read-out: IC50
  IC50: 54000 nM
SU-DHL-8; SU-DHL-8 cells, 5 days
  % Viable Cells AUC: 54.43
  % Viable Cells Emax: 2.508%
  % Viable Cells Sensitivity: High (highly sensitive to Compound 1 with less than 6% viable cells remaining (Emax) after treatment)
  Apoptosis AUC: 652.5
  Apoptosis Sensitivity: High
TMD8; Homo sapiens, 120 h
  EC50: 4.44 nM
  Emax: 83.2%
TMD8; [6]
  IC50: 3 nM
TMD8
  % Viable Cells AUC: 3.911
  % Viable Cells Emax: 1.365%
  % Viable Cells Sensitivity: High (highly sensitive to Compound 1 with less than 6% viable cells remaining (Emax) after treatment)
  Apoptosis AUC: 826.8
  Apoptosis Sensitivity: High
OCI-LY-7; [8]
  EC50: 12.8 nM
  Emax: 68.8%
OCI-LY-7; Homo sapiens, OCI-Ly7, 120 h, OCI-LY-7 cells, 5 days, read-out: % Viable Cells IC50
  IC50: 3.6 nM
OCI-LY-7; Homo sapiens, OCI-Ly7, OCI-LY-7 cells (Table 3), read-out: IC50
  IC50: 62000 nM
OCI-LY-7; OCI-LY-7 cells, 5 days
  % Viable Cells AUC: 61.98
  % Viable Cells Emax: 1.657%
  % Viable Cells Sensitivity: High (highly sensitive to Compound 1 with less than 6% viable cells remaining (Emax) after treatment)
  Apoptosis AUC: 673.2
  Apoptosis Sensitivity: High
WSU-DLCL2; [9]
  EC50: 77 nM
  Emax: 47.8%
WSU-DLCL2; Homo sapiens, WSUDLCL2, 120 h, WSU-DLCL2 cells, 5 days, read-out: % Viable Cells IC50
  IC50: 20 nM
WSU-DLCL2; Homo sapiens, WSUDLCL2, WSU-DLCL2 cells (Table 3), read-out: IC50
  IC50: 174000 nM
WSU-DLCL2; WSU-DLCL2 cells, 5 days
  % Viable Cells AUC: 173.8
  % Viable Cells Emax: 1.36%
  % Viable Cells Sensitivity: High (highly sensitive to Compound 1 with less than 6% viable cells remaining (Emax) after treatment)
  Apoptosis AUC: 464.5
  Apoptosis Sensitivity: High
OCI-Ly10; [10]
  EC50: 2090 nM
  Emax: 29.4%
OCI-Ly10; Homo sapiens, 120 h, OCI-Ly10 cells, 5 days, read-out: % Viable Cells IC50
  IC50: 50 nM
OCI-Ly10; Homo sapiens, OCI-Ly10 cells (Table 3), read-out: IC50
  IC50: 267000 nM
OCI-Ly10; OCI-Ly10 cells, 5 days
  % Viable Cells AUC: 267.3
  % Viable Cells Emax: 19.19%
  % Viable Cells Sensitivity: Intermediate (intermediate sensitivity with 15% to 55% cell viability)
  Apoptosis AUC: 187.7
  Apoptosis Sensitivity: Intermediate
U2932; [11]
  EC50: 11900 nM
  Emax: 69.9%
U2932; Homo sapiens, 120 h, U2932 cells, 5 days, read-out: % Viable Cells IC50
  IC50: 100 nM
U2932; Homo sapiens, U2932 cells (Table 3), read-out: IC50
  IC50: 327000 nM
U2932; U2932 cells, 5 days
  % Viable Cells AUC: 327.1
  % Viable Cells Emax: 24.81%
  % Viable Cells Sensitivity: Intermediate (intermediate sensitivity with 15% to 55% cell viability)
  Apoptosis AUC: 280.5
  Apoptosis Sensitivity: Intermediate
